From patent US9686985B2, “Fungicide N-cycloalkyl-N-bicyclicmethylene-carboxamide derivatives” (BAYER INTELLECTUAL PROPERTY GMBH, priority 2012, dated 2017)

Experiments:
Botrytis cinerea [1] = assay: Example S: in vivo preventive test on Botrytis cinerea (grey mould); conditions: table S; 500 ppm; gherkin plants; grading 4 to 5 days after contamination
Description: Example S: In Vivo Preventive Test on Botrytis cinerea (Grey Mould) […] Gherkin plants (“Vert petit de Paris” variety), sown in starter cups on a 50/50 peat soil pozzolana substrate and grown at 24° C., are treated at the Z11 cotyledon stage by spraying with the active ingredient prepared as described above. Plants, used as controls, are treated with the mixture of acetone/tween/DMSO/water not containing the active material. After 24 hours, the plants are contaminated by spraying the cotyledons with an aqueous suspension of cryopreserved Botrytis cinerea spores (50 000 spores per mL). The spores are suspended in a nutrient solution composed of 10 g/L of PDB, 50 g/L of D-Fructose, 2 g/L of NH4NO3 and 1 g/L of KH2PO4. The contaminated gherkin plants are incubated at 17° C. and at 90% relative humidity. Grading (% of efficacy) is carried out 4 to 5 days after the contamination, in comparison with the control plants.

Sphaerotheca fuliginea = assay: Example A: in vivo preventive test on Sphaerotheca fuliginea (cucumber)
Description: Example A: In Vivo Preventive Test on Sphaerotheca fuliginea (Cucumber) [table] To produce a suitable preparation of active compound, 1 part by weight of active compound is mixed with the stated amounts of solvent and emulsifier, and the concentrate is diluted with water to the desired concentration. To test for preventive activity, young plants are sprayed with the preparation of active compound at the stated rate of application. One day after this treatment, the plants are inoculated with an aqueous spore suspension of Sphaerotheca fuliginea. Then the plants are placed in a greenhouse at approximately 23° C. and a relative atmospheric humidity of approximately 70%.

Alternaria solani = assay: Example C: in vivo preventive test on Alternaria solani (tomato)
Description: Example C: In Vivo Preventive Test on Alternaria solani (Tomato) [table] To produce a suitable preparation of active compound, 1 part by weight of active compound is mixed with the stated amounts of solvent and emulsifier, and the concentrate is diluted with water to the desired concentration. To test for preventive activity, young plants are sprayed with the preparation of active compound at the stated rate of application. One day after this treatment, the plants are inoculated with an aqueous spore suspension of Alternaria solani. The plants remain for one day in an incubation cabinet at approximately 22° C. and a relative atmospheric humidity of 100%. Then the plants are placed in an incubation cabinet at approximately 20° C. and a relative atmospheric humidity of 96%.

Puccinia triticina = assay: Example O: in vivo preventive test on Puccinia triticina (wheat); conditions: table O, 500 ppm, evaluated 8 days after inoculation
Description: Example O: In Vivo Preventive Test on Puccinia triticina (Wheat) [table] To produce a suitable preparation of active compound, 1 part by weight of active compound or active compound combination is mixed with the stated amounts of solvent and emulsifier, and the concentrate is diluted with water to the desired concentration. To test for preventive activity, young plants are sprayed with the preparation of active compound or active compound combination at the stated rate of application. After the spray coating has been dried, the plants are sprayed with a spore suspension of Puccinia triticina. The plants remain for 48 hours in an incubation cabinet at approximately 20° C. and a relative atmospheric humidity of approximately 100%. The plants are placed in the greenhouse at a temperature of approximately 20° C. and a relative atmospheric humidity of approximately 80%.

Septoria tritici = assay: Example L: in vivo preventive test on Septoria tritici (wheat); conditions: table L; 500 ppm; wheat plants; grading 24 days after contamination
Description: Example L: In Vivo Preventive Test on Septoria tritici (Wheat) […] Wheat plants (“Scipion” variety), sown in starter cups on a 50/50 peat soil pozzolana substrate and grown at 22° C., are treated at the 1 leaf stage (10 cm height) by spraying with the active ingredient prepared as described above. Plants, used as controls, are treated with the mixture of acetone/tween/DMSO/water not containing the active material. After 24 hours, the plants are contaminated by spraying the leaves with an aqueous suspension of cryopreserved Septoria tritici spores (500 000 spores per mL). The contaminated wheat plants are incubated for 72 hours at 18° C. and at 100% relative humidity, and then for 21 days at 90% relative humidity. Grading (% of efficacy) is carried out 24 days after the contamination, in comparison with the control plants.

Pyrenophora teres = assay: Example N: in vivo preventive test on Pyrenophora teres (barley); conditions: table N; 500 ppm; barley plants; grading 14 days after contamination
In short: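 Barley (cv. Plaisant) at 1-leaf stage was sprayed with compound, then inoculated 24 h later with P. teres spores (12 000/mL). Plants were held 48 h at 20 °C, 100% RH, then 12 days at 20 °C, 70-80% RH; % efficacy versus solvent-treated controls was graded 14 days post-inoculation.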

Uromyces appendiculatus = assay: Example F: in vivo preventive test on Uromyces appendiculatus (beans); conditions: table F, 100 ppm, evaluated 10 days after inoculation
Description: Example F: In Vivo Preventive Test on Uromyces appendiculatus (Beans) [table] To produce a suitable preparation of active compound, 1 part by weight of active compound is mixed with the stated amounts of solvent and emulsifier, and the concentrate is diluted with water to the desired concentration. To test for preventive activity, young plants are sprayed with the preparation of active compound at the stated rate of application. After the spray coating has dried on, the plants are inoculated with an aqueous spore suspension of the causal agent of bean rust (Uromyces appendiculatus) and then remain for 1 day in an incubation cabinet at approximately 20° C. and a relative atmospheric humidity of 100%. The plants are then placed in a greenhouse at approximately 21° C. and a relative atmospheric humidity of approximately 90%.

Botrytis cinerea [2] = assay: Example H: in vivo preventive test on Botrytis cinerea (beans); conditions: table H, 100 ppm, lesion size 2 days after inoculation
Description: Example H: In Vivo Preventive Test on Botrytis cinerea (Beans)
To produce a suitable preparation of active compound, 1 part by weight of active compound is mixed with the stated amounts of solvent and emulsifier, and the concentrate is diluted with water to the desired concentration.
To test for preventive activity, young plants are sprayed with the preparation of active compound. After the spray coating has dried on, 2 small pieces of agar covered with growth of Botrytis cinerea are placed on each leaf. The inoculated plants are placed in a darkened chamber at 20° C. and a relative atmospheric humidity of 100%.
2 days after the inoculation, the size of the lesions on the leaves is evaluated. 0% means an efficacy which corresponds to that of the untreated control, while an efficacy of 100% means that no disease is observed.

[3] = table A1, 100 ppm of active ingredient, evaluated 7 days after inoculation
[4] = table A2, dose 100 ppm, comparison with WO-2010/086311 compounds
[5] = table C1, 100 ppm, evaluated 7 days after inoculation

## CC(C1CCCc2ccccc21)N(C(=O)c1c(C(F)F)nn(C)c1F)C1CC1 (centres unmarked) [I.23]
Botrytis cinerea [1]
  Efficacy: 85%
Sphaerotheca fuliginea; [3]
  Efficacy: 94%
Sphaerotheca fuliginea; [4]
  Efficacy: 94%
Alternaria solani; [5]
  Efficacy: 90%
Alternaria solani; table C2, dose 100 ppm, comparison with WO-2010/086311 compound
  Efficacy: 90%
Alternaria solani; table C2, dose 100 ppm, comparison with WO-2010/086311 compound, listed as 1.23
  Efficacy: at least 90%
Puccinia triticina
  Efficacy: 75%
Septoria tritici
  Efficacy: 100%
Pyrenophora teres
  Efficacy: 100%
Uromyces appendiculatus
  Efficacy: 96%
Botrytis cinerea [2]
  Efficacy: 99%

## Cn1nc(C(F)F)c(C(=O)N(CC2CC(C)(C)Oc3ccccc32)C2CC2)c1F (centres unmarked) [I.33]
Botrytis cinerea [1]
  Efficacy: 80%
Sphaerotheca fuliginea; [3]
  Efficacy: 94%
Sphaerotheca fuliginea; [4]
  Efficacy: 94%
Alternaria solani; [5]
  Efficacy: 100%
Puccinia triticina
  Efficacy: 100%
Septoria tritici
  Efficacy: 100%
Pyrenophora teres
  Efficacy: 100%
Uromyces appendiculatus
  Efficacy: 100%
Botrytis cinerea [2]
  Efficacy: 96%
